Test results taken from patent US12545637B2, “Extrahepatic targeted cationic lipid compound with high efficiency and low toxicity and its composition” (BEIJING YOUCARE KECHUANG PHARMACEUTICAL TECHNOLOGY CO., LTD., priority 2023, dated 2026).

Experiments:
female BALB/C mice = experiment: In vivo imaging in mice of Fluc-mRNA LNP formulations (mRNA expression and duration)
Method: The LNP formulation (prepared according to Example 4) containing […] Fluc-mRNA was injected intramuscularly into female BALB/C mice aged 4-6 weeks and weighed 17-19 g, and the mice were intraperitoneally injected with fluorescent imaging substrate at specific time points after administration (6h, 24 h, 48h and 7d), where the mice were allowed to free move for 5 minutes, and then the average radiation intensity (corresponding to fluorescence expression intensity) of the protein expression of the mRNA carried by the LNP in the mice was detected by the IVIS Spectrum small animal in vivo imaging system.

293T cells [1] = experiment: Cell transfection test of LNP formulation of eGFP-mRNA (optimization of preparation conditions); assay type: cell-based
Method: The cationic lipid compound YK-407 synthesized in Example 1 was dissolved in ethanol with DSPC (AVT (Shanghai) Pharmaceutical Technology Co., Ltd.), cholesterol (AVT (Shanghai) Pharmaceutical Technology Co., Ltd.) and DMG-PEG2000 according to a molar ratio of 49:10:39.5:1.5, respectively, to prepare an ethanol lipid solution. The ethanol lipid solution was quickly added to citrate buffer (pH=4-5) by ethanol injection method, and vortexed for 30s for later use. eGFP-mRNA was diluted in citrate buffer (pH=4-5) to give an aqueous mRNA solution. A certain volume of liposome solution and mRNA aqueous solution were used to prepare liposomes at weight ratios of total lipids to mRNA of 5:1, 10:1, 15:1, 20:1, 30:1 and 35:1, respectively. The mixtures were sonicated at 25° C. for 15 min (with an ultrasonic frequency of 40 kHz and an ultrasonic power of 800 W). The resulted liposomes were diluted to 10 times volume with PBS, and then ultrafiltered with a 300KDa ultrafiltration tube to remove ethanol. Then the volume was fixed to a certain volume with PBS to give an LNP formulation encapsulating eGFP-mRNA using cationic lipid YK-407/DSPC/cholesterol/DMG-PEG2000 (49:10:39.5:1.5 in molar percentage).
The LNP formulation encapsulating eGFP-mRNA was prepared according to the method in 1, wherein the molar ratios of cationic lipid YK-407 to neutral lipid DSPC were 1:1, 3:1, 3.5:1, 4:1, 4.5:1, 4.9:1, 10:1, 15:1 and 20:1.
The LNP formulation encapsulating eGFP-mRNA was prepared according to the method in 1, wherein the cationic lipid in the carrier was YK-407, and the molar ratios of the polymer-conjugated lipid DMG-PEG2000 to the carrier were 0.5%, 1.5%, 3.5%, 5%, 10% and 15%, respectively.
The LNP formulation encapsulating eGFP-mRNA was prepared according to the method in 1, wherein the molar ratios of cationic lipid YK-407, neutral lipid DSPC, structured lipid cholesterol and polymer-conjugated lipid DMG-PEG2000 were 75:5:15:5, 49:10:39.5:1.5, 45:10:43.5:1.5, 45:25:20:10, 40:10:48.5:1.5, 35:10:53.5:1.5 and 25:5:65:5, respectively.
Cell recovery and passage: 293T cells were recovered, cultured in a culture dish, and passaged to the required number of cells.
(§1) Seeding plate: The cells in the culture dish were digested and counted. Cells were spread in a 96-well plate at 10,000 cells per well and in a 12-well plate at 150,000 cells per well. Cells were cultured overnight until the cells adhered to the wall.
Cell transfection test: The LNP formulation containing 1.5 μg of eGFP-mRNA prepared in Example 2 (the cationic lipid in the carrier was YK-407) and the Lipofectamin 3000 formulation of eGFP-mRNA were added respectively to the cell culture medium of the 12-well plate, and further incubated for 24 hours. The transfection efficiency of different samples was then investigated according to the fluorescence intensity by observing with a fluorescence microscope.

293T cells [2] = experiment: Fluorescent detection of Fluc-mRNA (cell transfection efficiency of LNP formulations); assay type: cell-based
Method: as §1
The corresponding reagents were added according to the instructions of the Gaussia Luciferase Assay Kit, and the fluorescence expression intensity of each well was detected by an IVIS fluorescence detection system.

293T cells [3] = experiment: as above; assay type: cell-based; remark: listed apart in the source

Compound: CCCCCCCCC(CCCCCCCC)OC(=O)CCCCCN(CCO)CCN(CCO)CCCCCC(=O)OC(CCCCCCCC)CCCCCCCC [YK-401, di(heptadecan-9-yl) 6,6′-(ethane-1,2-diyl-bis((2-hydroxyethyl)azanediyl))dihexanoate]
- average radiation intensity, times that of ALC-0315 (female BALB/C mice; 6 h): 1.85
- average radiation intensity, times that of HHMA (female BALB/C mice; 6 h): 2.36
- average radiation intensity, times that of SM-102 (female BALB/C mice; 6 h): 2.25
- average radiation intensity, times that of compound 21 (female BALB/C mice; 6 h): 2.59
- average radiation intensity, times that of compound 23 (female BALB/C mice; 6 h): 2.68
- expression amount in mice, times that of YK-415 (female BALB/C mice; 6 h): 13.22
- expression amount in mice, times that of YK-417 (female BALB/C mice; 6 h): 25.75
- mRNA expression in mice, times that of YK-411 (female BALB/C mice; 6 h): 266.26
- average radiation intensity, times that of ALC-0315 (female BALB/C mice; 24 h): 4.25
- average radiation intensity, times that of HHMA (female BALB/C mice; 24 h): 6.72
- average radiation intensity, times that of SM-102 (female BALB/C mice; 24 h): 6.53
- average radiation intensity, times that of compound 21 (female BALB/C mice; 24 h): 7.26
- average radiation intensity, times that of compound 23 (female BALB/C mice; 24 h): 7.98
- expression amount in mice, times that of YK-415 (female BALB/C mice; 24 h): 12.50
- expression amount in mice, times that of YK-417 (female BALB/C mice; 24 h): 40.34
- mRNA expression in mice, times that of YK-411 (female BALB/C mice; 24 h): 398.73
- average radiation intensity, times that of ALC-0315 (female BALB/C mice; 48 h): 9.79
- average radiation intensity, times that of HHMA (female BALB/C mice; 48 h): 11.79
- average radiation intensity, times that of SM-102 (female BALB/C mice; 48 h): 11.96
- average radiation intensity, times that of compound 21 (female BALB/C mice; 48 h): 12.46
- average radiation intensity, times that of compound 23 (female BALB/C mice; 48 h): 11.94
- expression amount in mice, times that of YK-415 (female BALB/C mice; 48 h): 24.89
- expression amount in mice, times that of YK-417 (female BALB/C mice; 48 h): 55.79
- mRNA expression in mice, times that of YK-411 (female BALB/C mice; 48 h): 403.10
- average radiation intensity, times that of ALC-0315 (female BALB/C mice; 7 d): 1.50
- average radiation intensity, times that of HHMA (female BALB/C mice; 7 d): 1.76
- average radiation intensity, times that of SM-102 (female BALB/C mice; 7 d): 1.56
- average radiation intensity, times that of compound 21 (female BALB/C mice; 7 d): 1.65
- average radiation intensity, times that of compound 23 (female BALB/C mice; 7 d): 1.72
- expression amount in mice, times that of YK-415 (female BALB/C mice; 7 d): 2.60
- expression amount in mice, times that of YK-417 (female BALB/C mice; 7 d): 4.60
- mRNA expression in mice, times that of YK-411 (female BALB/C mice; 7 d): 21.90
- average radiation intensity, 6 h (female BALB/C mice; Fluc-mRNA LNP intramuscular, 6 h after administration): 1557640
- average radiation intensity, 24 h (female BALB/C mice; Fluc-mRNA LNP intramuscular, 24 h after administration): 806240
- average radiation intensity, 48 h (female BALB/C mice; Fluc-mRNA LNP intramuscular, 48 h after administration): 393020
- average radiation intensity, 7 d (female BALB/C mice; Fluc-mRNA LNP intramuscular, 7 d after administration): 10512
- transfection efficiency at different molar ratios of polymer-conjugated lipid DMG-PEG2000 to carrier (293T cells [1]; 0.5% to 15%): same results
- transfection effect at different molar ratios of cationic lipid, neutral lipid, structured lipid and polymer-conjugated lipid (293T cells [1]; 75:5:15:5 to 25:5:65:5): same results
- Relative light unit (RLU) (293T cells [2]; LNP with 0.3 μg Fluc-mRNA, 96-well plate, 24 hours): 5609550 RLU
- cell transfection efficiency, times that of YK-415 (293T cells [2]; ratio vs YK-415): 18.82
- cell transfection efficiency, times that of YK-417 (293T cells [2]; ratio vs YK-417): 47.83
- cell transfection efficiency, times that of YK-418 (293T cells [2]; ratio vs YK-418): 50.42
- cell transfection efficiency, times that of YK-424 (293T cells [2]; ratio vs YK-424): 1.95
- RLU value, times that of compound 21 (293T cells [2]; ratio vs compound 21): 3.71
- RLU value, times that of compound 23 (293T cells [2]; ratio vs compound 23): 4.00
- RLU value, times that of ALC-0315 (293T cells [3]; ratio vs ALC-0315): 2.56
- RLU value, times that of HHMA (293T cells [3]; ratio vs HHMA): 2.70
- RLU value, times that of Lipofectamine 3000 (293T cells [3]; ratio vs Lipofectamine 3000): 4.67
- RLU value, times that of YK-009 (293T cells [3]; ratio vs YK-009): 1.09
- RLU value, times that of YK-405 (293T cells [3]; ratio vs YK-405): 1.75
- RLU value, times that of YK-406 (293T cells [3]; ratio vs YK-406): 71.69
- RLU value, times that of YK-408 (293T cells [3]; ratio vs YK-408): 3.81
- RLU value, times that of YK-409 (293T cells [3]; ratio vs YK-409): 8.37
- RLU value, times that of YK-410 (293T cells [3]; ratio vs YK-410): 13.75
- cell transfection efficiency, times that of YK-412 (293T cells [3]; ratio vs YK-412): 1.66
- cell transfection efficiency, times that of YK-413 (293T cells [3]; ratio vs YK-413): 4.07
- cell transfection efficiency, times that of YK-414 (293T cells [3]; ratio vs YK-414): 12.63
- cell transfection efficiency, times that of YK-416 (293T cells [3]; ratio vs YK-416): 1.41
- cell transfection efficiency, times that of YK-419 (293T cells [3]; ratio vs YK-419): 1.77
- cell transfection efficiency, times that of YK-420 (293T cells [3]; ratio vs YK-420): 1.40
- cell transfection efficiency, times that of YK-421 (293T cells [3]; ratio vs YK-421): 12.02
